Measured values as given in patent US11845747B2, “Ester and carbonate pyrimidine compounds as JAK kinase inhibitors” (priority 2019, dated 2023).

Columns and labels:
[1] = In vitro skin S9 metabolic stability assay (human); assay type: in vitro ADME; details: human skin S9 sub-fraction, pH 7.4, 1.0 mg/mL protein, 1 mM NADPH, read-out: Half-Life; for half-life at 0.2 μM: Human skin S9, 0.2 μM; for half-life at 2 μM: Human skin S9, 2 μM
Method: (§1) Assay 6: In Vitro Skin S9 Metabolic Stability Assay
(§2) The objective of this assay was to assess the metabolic stability of compounds in human and mouse skin S9 sub-fraction. Human and mouse skin S9 sub-fractions obtained from Bioreclamation-IVT (Baltimore, Md.) were thawed on ice and diluted into 0.1M potassium phosphate buffer pH 7.4 to yield final incubation protein concentrations of 1.0 mg/mL. Test compounds (10 mM) were diluted into phosphate buffer to yield final incubation concentrations of 0.2 μM and 2.0 μM. Incubations were conducted at 37° C. temperature following addition of 1 mM NADPH and test aliquots were taken at time points 0, 5, 10, 20, 30 and 45 minutes. Each aliquot was crashed into water with 3% formic acid and 1 μM internal standard. The resulting samples were injected onto an LC-MS/MS system for analysis.
(§3) For each incubation, the peak area of the analytes in each t0 aliquot was set to 100% and the peak areas from subsequent time point aliquots were converted to percentage of parent compound remaining relative to t0. The percentage of parent compound remaining at each time point was converted to natural log scale and plotted versus time in minutes to determine a disappearance half-life.

[2] = In vitro skin S9 metabolic stability assay (mouse); assay type: in vitro ADME; details: mouse skin S9 sub-fraction, pH 7.4, 1.0 mg/mL protein, 1 mM NADPH, read-out: Half-Life; for half-life at 0.2 μM: Mouse skin S9, 0.2 μM; for half-life at 2 μM: Mouse skin S9, 2 μM
Method: as §1, §2, §3

Row | half-life at 0.2 μM [1] | half-life at 2 μM [1] | half-life at 0.2 μM [2] | half-life at 2 μM [2] | Structure (SMILES)
1 | < 15 min | < 15 min | < 15 min | < 15 min | CC(Cc1cccc(C(F)(F)F)c1)NCCOC(=O)c1ccccc1 (centres unmarked) [Benfluorex, reference compound]
2 | > 30 min | > 30 min | > 30 min | > 30 min | CCOc1ccc2ccc(=O)oc2c1 [7-Ethoxycoumarin, reference compound]
